Experimental data taken from ChEMBL document CHEMBL6153060, “Structure-Based Design of Novel TLR7/8 Agonist Payloads Enabling an Immunomodulatory Conjugate Approach” (ACS Med Chem Lett, 2025).

Legend:
[1] = Metabolic stability in mouse liver microsomes assessed as compound remaining; format: ADME, Microsome
[2] = Metabolic stability in human liver microsomes assessed as compound remaining after 30 mins; format: ADME, Microsome; details: read-out: Stability

Stability [1]: 1% | remaining at 0.5 h [2]: 4%
Structure (SMILES): CCC[C@@H](CCO)Nc1nc(N)nc2c3ccccc3n(Cc3cc(CNC[C@@H]4CCOC4)ccc3OC)c12
